Where “and” joins values, the source holds several entries; their conditions need not be identical. Equal entries are not always repeated.
Assays:
S. enteridis ATCC13076 = experiment: Disc diffusion assay; format: cell-based, Salmonella Enteritidis
Experimental: (§1) Therefore, the pathogen bacterial flora and the opportunistic agents may be taken into consideration both in the management of cancer patients and in individual susceptibility to cancer. Indeed, dual acting factors with antimicrobial and antiproliferative potentials can result in improved therapeutic efficacy for cancer cell patients or reduced cancer predisposition. […]. In this study, 10 microbial cultures of this part, belonging to ten types of bacterial were used. The culture was grown in Mueller–Hinton Broth (Merck) for all the bacterial strains at 36 °C. Antimicrobial test was carried out by using disc-diffusion assay utilizing 100 µL of suspension with 10^8 CFU/mL of bacteria and 10^6 CFU/mL of yeast spread on Nutrient Agar and Potato Dextrose Agar, respectively. Also, the blank disc (Oxoid = 6 mm in diameter) was impregnated with 20 µL of each substance (105 µg/disc) and placed on the inoculated agar. Negative controls ([…]) were prepared using the same solvent (water) employed to dissolve each substance. […]. The inoculated plate was incubated at 36 °C for clinical bacterial strains. Antimicrobial activities were evaluated by obtaining the zone of inhibitory effect against the test organisms.

Vero = experiment: BrdU Cell Proliferation Assay (BCPA); format: cell-based
Excerpt: (§2) The antiproliferative activities of Ag(I) molecules and the starting molecules of the parent molecules, N-bishydeten and [Ag(CN)2]^− compound, on cells, were monitored utilizing by the BrdU Cell Proliferation Assay (BCPA) (Fig. 6).
(§3) The antiproliferative activity of the 2, 3, 4, [Ag(CN)2]^− and 5FU against various cell lines (HeLa ATCC CCL-2, C6 cells ATCC CCL-107, HT29 ATCC HTB-38, and Vero ATCC CCL-81) were preserved and maintained in Dulbecco’s modified eagle’s medium, supplemented with %2 antibiotic (Streptomycin-Penicillin) solution and 10% fetal bovine serum.
(§4) The cell suspension including 5×10^3 cells in 100 µL was supplied into the well cell plates (96-well cell). The therapies of these cells with 2, 3, 4 and [Ag(CN)2]^− in DMSO (max 0.1% DMSO) and 5-Florouracil (5 FU) molecule in DMSO (max 0.1% DMSO) separately at concentration 0.25, 0.50, 1.00, 1.50, 2.00, 2.50, 3.75, and 5.00 µg/mL were carried out. The last volume was adapted to 200 µL by mixture and DMEM and also incubated for 24 h at 37°C with 5% CO2. The antiproliferative activities of the 2, 3, 4 and [Ag(CN)2]^− were determined with using BrdU Cell proliferation ELISA Kit conforming to manufacturer’s assay.
(§5) IC50 values the concentration of a factor which required for other method of in vitro.

HeLa = experiment: BrdU Cell Proliferation Assay (BCPA); format: cell-based
Excerpt: as §2, §3, §4, §5

C6 = experiment: BrdU Cell Proliferation Assay (BCPA); format: cell-based
Excerpt: as §2, §3, §4, §5

S. gallinarum = experiment: Disc diffusion assay; format: cell-based, Salmonella Gallinarum
Experimental: as §1

P. aeruginosa ATCC9027 = experiment: Disc diffusion assay; format: cell-based, Pseudomonas Aureginosa
Experimental: as §1

B. subtilis ATCC6633 = experiment: Disc diffusion assay; format: cell-based, Bacillus Subtilis
Experimental: as §1

St. pyogenez ATCC176 = experiment: Disc diffusion assay; format: cell-based, Steptococcus Pyogerez
Experimental: as §1

BSA = BSA (Bos taurus, UniProt P02769); experiment: UV–Visible absorption titration, BSA binding constant; design: species or system Bovine
Excerpt: UV–Visible absorption spectroscopy technique was also used to study interactions between BSA and 1–4. […] The some results of [BSA]/(εa − εf) = [BSA]/(εb − εf) + 1/[Kb(εb − εf)] in Fig. 9, used and also obtained. The binding constants for the 1–4 were found as 2.4 ± 0.22 × 10^4 M^−1, 4.3 ± 0.29 × 10^4 M^−1, 3.4 ± 0.23 × 10^4 M^−1 and 4.8 ± 0.29 × 10^4 M^−1, respectively. In Fig. 9, the increase in BSA concentrations leads to a change in the absorption of the complexes resulting in hypochromism for 1 and 3 and hyperchromism for 2 and 4.
To obtain the interaction act of the molecules with calf thymus DNA and also to determine the binding constants (Kb) UV–Visible absorption spectroscopy method was utilized. Indeed, 2.5 mg calf thymus DNA in this part was dissolved in Tris–HCl buffer and stabile pending seven days in the refrigerator. The concentration level of calf thymus DNA was calculated spectrophotometrically assay at 260 nm. This method was done according to previous studies.

HeLa cells = experiment: Cell migration assay; format: cell-based
Excerpt: Ag(I) compounds at 30% maximal inhibitory concentration (IC30) managed to inhibit tumor cell migration with low cytotoxicity (data not shown). In addition, this cytotoxic ability of Ag(I) compounds at 20% maximal inhibitory concentration (IC20) allowed the suppression of cell migration without damaging the cell membrane at non-toxic concentrations (data not shown). […] While untreated HeLa cells filled 100% of the gap, compounds 2, 3, and 4 managed to spread to 9%, %11, 15% of the gap, respectively (Figure S16; Supplementary Material, Day 2). In addition, the media with Ag(I) compounds were replaced with fresh media following the 72-h incubation, but the HeLa cells could not fill the gap (data not shown). […]. The result was consistent with that of the other studies on Ag(I) complexes containing different ligands[73],[74],[78],[80],[81],[83]–[87].
The migration feature of the 2, 3 and 4 was monitored using the cell migration method. Briefly, an equal number of HeLa cells (3.5 × 10^4 HeLa cells) were seeded into the two reservoirs separated by a 500 µm thick wall and allowed to grow to 90–95 % confluence. […]. The closure of the gap by the cells was photographed 0, 1 and 2 days after incubation by using a phase contrast inverted microscope.
Fig. S16. Effect of 2, 3 and 4 on the migration of HeLa cell line. […]

E. coli 111 = experiment: Disc diffusion assay; format: cell-based, Escherichia coli
Experimental: as §1

S. aureus ATCC29213 = experiment: Disc diffusion assay; format: cell-based, Staphylococcus aureus
Experimental: as §1

E. aerogenes 2924 = experiment: Disc diffusion assay; format: cell-based, Enterobacter Aerogenes
Experimental: as §1

Row | Substance | inhibition zones, S. enteridis ATCC13076 (S. enteridis ATCC13076) [mm] | IC50 (Vero) [nM] | IC50 (HeLa) [nM] | IC50 (C6) [nM] | inhibition zones, S. gallinarum (S. gallinarum) [mm] | inhibition zones, P. aeruginosa ATCC9027 (P. aeruginosa ATCC9027) [mm] | inhibition zones, B. subtilis ATCC6633 (B. subtilis ATCC6633) [mm] | inhibition zones, St. pyogenez ATCC176 (St. pyogenez ATCC176) [mm] | binding constant with BSA (BSA) | part of the gap filled by HeLa cells (migration) (HeLa cells) [%] | inhibition zones, E. coli 111 (E. coli 111) [mm] | inhibition zones, S. aureus ATCC29213 (S. aureus ATCC29213) [mm] | inhibition zones, E. aerogenes 2924 (E. aerogenes 2924) [mm]
1 | [Cu(N-bishydeten)Ag3(CN)5] [Complex 2] | 30 ± 0.58 | 2810 ± 320 | 3640 ± 420 | 950 ± 90 | 35 ± 1.0 | 30 ± 1.0 | 27 ± 0.58 | 32 ± 0.58 | 4.3 ± 0.29 × 10^4 M^−1 and 4.3 x 10^4 | 9 | 32 ± 0.0 | 37 ± 1.0 | 22 ± 1.0
2 | [Zn(N-bishydeten)Ag3(CN)5] [Complex 3] | 33 ± 0.58 | 3060 ± 350 | 3190 ± 370 | 3340 ± 340 | 35 ± 0.58 | 30 ± 1.0 | 31 ± 1.0 | 29 ± 0.58 | 3.4 ± 0.23 × 10^4 M^−1 and 3.4 x 10^4 | 11 | 30 ± 0.58 | 25 ± 0.58 | 20 ± 1.0
3 | [Cd(N-bishydeten)]4[Ag(CN)2]8[Ag(CN)]2 [Complex 4] | 36 ± 1.0 | 630 ± 90 | 610 ± 90 | 600 ± 90 | 37 ± 1.0 | 30 ± 0.58 | 34 ± 0.58 | 26 ± 0.0 | 4.8 ± 0.29 × 10^4 M^−1 and 4.8 x 10^4 | 15 | 29 ± 0.58 | 30 ± 1.0 | 25 ± 1.0

From PMC7385626 (Scientific Reports, 2020)
